Reference: ChEMBL document CHEMBL1139733, “Aminopyridine carboxamides as c-Jun N-terminal kinase inhibitors: targeting the gatekeeper residue and beyond” (Bioorg Med Chem Lett, 2006)

Legend:
[1] = biological target: c-Jun N-terminal kinase, JNK (Homo sapiens, UniProt P45983+P53779+P45984); experiment: Inhibition of PcJun phosphorylation in HepG2 cells; format: functional, cell-based
[2] = biological target: Mitogen-activated protein kinase 8 (Homo sapiens, UniProt P45983); experiment: Inhibition of JNK1 by ATF2 phosphorylation assay; format: functional
[3] = biological target: Mitogen-activated protein kinase 9 (Homo sapiens, UniProt P45984); experiment: Inhibition of JNK2 by ATF2 phosphorylation assay; format: functional
Chain of Mitogen-activated protein kinase 9 (P45984 whole entry): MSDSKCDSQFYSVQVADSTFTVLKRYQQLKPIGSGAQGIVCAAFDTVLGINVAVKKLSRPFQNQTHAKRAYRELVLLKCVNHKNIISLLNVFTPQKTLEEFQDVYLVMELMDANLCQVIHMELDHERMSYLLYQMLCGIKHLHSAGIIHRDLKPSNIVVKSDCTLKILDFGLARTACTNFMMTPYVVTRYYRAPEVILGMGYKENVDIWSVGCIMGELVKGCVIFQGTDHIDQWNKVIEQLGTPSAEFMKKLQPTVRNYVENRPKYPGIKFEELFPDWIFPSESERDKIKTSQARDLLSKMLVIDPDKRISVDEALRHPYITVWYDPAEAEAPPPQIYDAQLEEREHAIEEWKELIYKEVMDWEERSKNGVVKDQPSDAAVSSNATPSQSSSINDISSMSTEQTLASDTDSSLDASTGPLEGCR

Chain of Mitogen-activated protein kinase 8 (P45983 whole entry): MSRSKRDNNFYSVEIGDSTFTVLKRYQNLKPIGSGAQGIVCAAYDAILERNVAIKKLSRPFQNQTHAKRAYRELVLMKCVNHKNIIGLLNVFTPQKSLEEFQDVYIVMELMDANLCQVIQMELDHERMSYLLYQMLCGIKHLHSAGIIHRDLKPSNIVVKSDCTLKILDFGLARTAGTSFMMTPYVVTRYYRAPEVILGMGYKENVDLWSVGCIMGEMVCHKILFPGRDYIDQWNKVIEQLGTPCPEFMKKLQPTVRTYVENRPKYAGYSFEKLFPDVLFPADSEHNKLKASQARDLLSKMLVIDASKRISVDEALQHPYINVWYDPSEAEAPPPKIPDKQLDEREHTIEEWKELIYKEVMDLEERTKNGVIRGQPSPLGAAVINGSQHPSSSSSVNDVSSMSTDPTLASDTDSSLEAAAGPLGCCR

SMILES	IC50 [1] [nM]	IC50 [2] [nM]	IC50 [3] [nM]
CC(C)Oc1nc(C(=O)NCc2ccc(S(C)(=O)=O)cc2)cc(N)c1C#N	250	15	38
CS(=O)(=O)c1ccc(CNC(=O)c2cc(N)c(C#N)c(OCC3CC3)n2)cc1	560	23	47
CS(=O)(=O)c1ccc(CNC(=O)c2cc(N)c(C#N)c(-c3ccc(C(=O)O)s3)n2)cc1	> 10000	250	160
CS(=O)(=O)c1ccc(CNC(=O)c2cc(N)c(C#N)c(NCCCO)n2)cc1	8300	54	180
CS(=O)(=O)c1ccc(CNC(=O)c2cc(N)c(C#N)c(-c3ccncc3)n2)cc1		530	660
COc1cccc(-c2nc(C(=O)NCc3ccc(S(C)(=O)=O)cc3)cc(N)c2C#N)c1	1800	430	600
C[C@@H](CO)Nc1nc(C(=O)NCc2ccc(S(C)(=O)=O)cc2)cc(N)c1C#N	2600	22	30
CS(=O)(=O)c1ccc(CNC(=O)c2cc(N)c(C#N)c(/C=C/C(=O)O)n2)cc1	> 2500	300	430
COCCNc1nc(C(=O)NCc2ccc(S(C)(=O)=O)cc2)cc(N)c1C#N	5900	120	210
CS(=O)(=O)c1ccc(CNC(=O)c2cc(N)c(C#N)c(NC3CC3)n2)cc1	1200	32	69
CN(C)CCNc1nc(C(=O)NCc2ccc(S(C)(=O)=O)cc2)cc(N)c1C#N		7300	9200
CS(=O)(=O)c1ccc(CNC(=O)c2cc(N)c(C#N)c(-c3ccsc3CO)n2)cc1	10800	570	680
COc1ccc(Oc2nc(C(=O)NCc3ccc(S(C)(=O)=O)cc3)cc(N)c2C#N)cc1		420	450
CS(=O)(=O)c1ccc(CNC(=O)c2cc(N)c(C#N)c(NCCc3ccccc3)n2)cc1	2700	260	1000
CCOc1nc(C(=O)NCc2ccc(S(C)(=O)=O)cc2)cc(N)c1C#C/C=C/CO	5240	1550	4320
C[C@H](CO)Nc1nc(C(=O)NCc2ccc(S(C)(=O)=O)cc2)cc(N)c1C#N	> 10000	180	320
CS(=O)(=O)c1ccc(CNC(=O)c2cc(N)c(C#N)c(/C=C/c3ccccc3)n2)cc1	350	1450	1290
CS(=O)(=O)c1ccc(CNC(=O)c2cc(N)c(C#N)c(-c3ccsc3)n2)cc1	610	81	390
C=Cc1c(N)cc(C(=O)NCc2ccc(S(C)(=O)=O)cc2)nc1OCC	4630	1180	1460
CS(=O)(=O)c1ccc(CNC(=O)c2cc(N)c(C#N)c(NCCC(N)=O)n2)cc1	> 10000	66	87
CC(C)COc1nc(C(=O)NCc2ccc(S(C)(=O)=O)cc2)cc(N)c1C#N	700	88	370
CS(=O)(=O)c1ccc(CNC(=O)c2cc(N)c(C#N)c(NCCN)n2)cc1		1600	
CS(=O)(=O)c1ccc(CNC(=O)c2cc(N)c(C#N)c(/C=C/CCO)n2)cc1	5300	170	240
CS(=O)(=O)c1ccc(CNC(=O)c2cc(N)c(C#N)c(NCCNC(N)=O)n2)cc1	> 10000	93	
CCCCC#Cc1c(N)cc(C(=O)NCc2ccc(S(C)(=O)=O)cc2)nc1OCC		> 10000	
CC(C)Nc1nc(C(=O)NCc2ccc(S(C)(=O)=O)cc2)cc(N)c1C#N	490	67	84
CS(=O)(=O)c1ccc(CNC(=O)c2cc(N)c(C#N)c(-c3ccsc3CNCc3ccccc3)n2)cc1	8010	1990	
CC(C)NC(=O)c1nc(C(=O)NCc2ccc(S(C)(=O)=O)cc2)cc(N)c1C#N	2900	430	120

SMILES	IC50 [1] [nM]	IC50 [2] [nM]	IC50 [3] [nM]
CCOc1nc(C(=O)NCc2ccc(S(C)(=O)=O)cc2)cc(N)c1/C=C/c1ccccc1	6920	2430	4130
CCCNC(=O)c1c(N)cc(C(=O)NCc2ccc(S(C)(=O)=O)cc2)nc1OCC		5250	
CS(=O)(=O)c1ccc(CNC(=O)c2cc(N)c(C#N)c(-c3cccc(S(C)(=O)=O)c3)n2)cc1	10500	43	97
C/C=C\c1nc(C(=O)NCc2ccc(S(C)(=O)=O)cc2)cc(N)c1C#N	5500	150	260
CCOc1nc(C(=O)NCc2ccc(S(C)(=O)=O)cc2)cc(N)c1C#Cc1ccsc1		3430	> 10000
CS(=O)(=O)c1ccc(CNC(=O)c2cc(N)c(C#N)c(-c3ccoc3)n2)cc1	4300	270	530
C#C/C=C/c1c(N)cc(C(=O)NCc2ccc(S(C)(=O)=O)cc2)nc1OCC	1400	79	300
CS(=O)(=O)c1ccc(CNC(=O)c2cc(N)c(C#N)c(NCCO)n2)cc1	> 10000	93	150
CCOc1nc(C(=O)NCc2ccc(S(C)(=O)=O)cc2)cc(N)c1/C=C/C#N	807	410	1790
CS(=O)(=O)c1ccc(CNC(=O)c2cc(N)c(C#N)c(-c3cccc(Cl)c3)n2)cc1	1200	1180	840
CCOc1nc(C(=O)NCc2ccc(S(C)(=O)=O)cc2)cc(N)c1C(N)=O	7540	318	969
CC(C)[C@@H](CO)Nc1nc(C(=O)NCc2ccc(S(C)(=O)=O)cc2)cc(N)c1C#N		1500	1400
CCOc1nc(C(=O)NCc2ccc(S(C)(=O)=O)cc2)cc(N)c1C#CCO	5700	1090	
CCOc1nc(C(=O)NCc2ccc(S(C)(=O)=O)cc2)cc(N)c1/C=C/C(C)(C)C	> 10000	2930	4160
C#Cc1c(N)cc(C(=O)NCc2ccc(S(C)(=O)=O)cc2)nc1OCC	1890	350	300
C/C=C/c1nc(C(=O)NCc2ccc(S(C)(=O)=O)cc2)cc(N)c1C#N	890	48	230
CS(=O)(=O)c1ccc(CNC(=O)c2cc(N)c(C#N)c(NC(CO)CO)n2)cc1	> 10000	76	100
CS(=O)(=O)c1ccc(CNC(=O)c2cc(N)c(C#N)c(CCC(=O)O)n2)cc1		1640	6920
CS(=O)(=O)c1ccc(CNC(=O)c2cc(N)c(C#N)c(OCC3CCCC3)n2)cc1	490	390	610
CS(=O)(=O)c1ccc(CNC(=O)c2cc(N)c(C#N)c(NC3CCCC3)n2)cc1	480	96	290
CS(=O)(=O)c1ccc(CNC(=O)c2cc(N)c(C#N)c(-c3cncnc3)n2)cc1	> 10000	620	860
CS(=O)(=O)c1ccc(CNC(=O)c2cc(N)c(C#N)c(NCc3ccccc3)n2)cc1		820	4700
CCOc1nc(C(=O)NCc2ccc(S(C)(=O)=O)cc2)cc(N)c1C#CCCO	7360	2240	4610
CS(=O)(=O)c1ccc(CNC(=O)c2cc(N)c(C#N)c(NC3CCC3)n2)cc1	620	85	160
CS(=O)(=O)c1ccc(CNC(=O)c2cc(N)c(C#N)c(-c3cccc(O)c3)n2)cc1	9400	200	240
CS(=O)(=O)c1ccc(CNC(=O)c2cc(N)c(C#N)c(-c3cccnc3)n2)cc1	7300	320	340
CC(=O)NCCNc1nc(C(=O)NCc2ccc(S(C)(=O)=O)cc2)cc(N)c1C#N	> 10000	59	81
